Data as given in patent publication US20040072746A1, “Inhibitors of monocarboxylate transport” (priority 2001, published 2004).

Key:
human MCT3 = target: T1, human MCT3 (Homo sapiens, UniProt O95907); experiment: MCT filter binding assay, yeast membranes, radioligand specific binding; settings: ~2.5 nM radioligand
T1 construct: the full length open reading frame of human MCT3 was subcloned into the S. cerevisiae expression plasmid pACES14; made in house; host or cells: Saccharomyces cerevisiae BY4742 (jen1 deletion), membrane preparation; plasmid pACES14-hMCT3
T1 sequence (O95907 1-504): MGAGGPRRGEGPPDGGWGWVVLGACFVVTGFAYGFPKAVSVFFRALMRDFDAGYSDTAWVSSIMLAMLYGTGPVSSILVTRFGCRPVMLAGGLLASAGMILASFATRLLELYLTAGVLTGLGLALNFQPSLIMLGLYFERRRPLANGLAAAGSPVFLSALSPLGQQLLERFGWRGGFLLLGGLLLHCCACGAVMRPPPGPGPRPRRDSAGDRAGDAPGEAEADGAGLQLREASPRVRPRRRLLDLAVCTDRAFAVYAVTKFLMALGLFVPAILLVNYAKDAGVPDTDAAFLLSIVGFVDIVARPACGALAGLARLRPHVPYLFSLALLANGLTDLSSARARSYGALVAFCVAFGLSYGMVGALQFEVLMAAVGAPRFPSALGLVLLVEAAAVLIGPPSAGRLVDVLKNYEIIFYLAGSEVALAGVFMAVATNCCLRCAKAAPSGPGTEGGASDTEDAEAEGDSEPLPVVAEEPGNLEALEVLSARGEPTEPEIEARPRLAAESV
Protocol: (§1) For yeast cells transformed with expression plasmids containing the human MCT 1-4 ORFs the ability of membrane preparations to bind radioligand was determined using a single ligand concentration/multi protein concentration binding assay. This generated an estimate of the amount of active binding protein present in each membrane preparation. The ligand concentration used will give an estimate of Bmax that is approximately 90% of the true value. 10 μl of ligand A, B or C that had been diluted 50 fold with assay buffer (50 mM HEPES, 0.1 mM EDTA, 0.15 M NaCl, pH 7.5, 0.5% BSA) was dispensed into wells of a polypropylene microtitre plate. This gives a final radiolabelled ligand concentration of ˜2.5 nM. […] The membranes were diluted to give a known amount/180 μl assay buffer. This is typically in the […] range. For the membranes with high binding site number a more dilute membrane preparation should be added. 180 μl of each membrane solution was then added to each well and incubated at 2 hours at room temperature with shaking. The membranes were harvested onto GF-B filter plates and washed with assay buffer without BSA, dried, scintillant added and counts detected using the relevant program for each ligand on a Packard Top Count plate reader.

[1] = MCT filter binding assay, yeast membranes transformed with vector only; settings: ~2.5 nM radioligand
Protocol: as §1

MCT1 = target: T2, MCT1 (Homo sapiens, UniProt P53985, D490E); experiment: MCT filter binding assay, yeast membranes, radioligand specific binding; parameters: made in house; host or cells: Saccharomyces cerevisiae BY4742 (jen1 deletion), membrane preparation; plasmid pACES14-hMCT1; settings: ~2.5 nM radioligand
T2 sequence (P53985 1-500 D490E): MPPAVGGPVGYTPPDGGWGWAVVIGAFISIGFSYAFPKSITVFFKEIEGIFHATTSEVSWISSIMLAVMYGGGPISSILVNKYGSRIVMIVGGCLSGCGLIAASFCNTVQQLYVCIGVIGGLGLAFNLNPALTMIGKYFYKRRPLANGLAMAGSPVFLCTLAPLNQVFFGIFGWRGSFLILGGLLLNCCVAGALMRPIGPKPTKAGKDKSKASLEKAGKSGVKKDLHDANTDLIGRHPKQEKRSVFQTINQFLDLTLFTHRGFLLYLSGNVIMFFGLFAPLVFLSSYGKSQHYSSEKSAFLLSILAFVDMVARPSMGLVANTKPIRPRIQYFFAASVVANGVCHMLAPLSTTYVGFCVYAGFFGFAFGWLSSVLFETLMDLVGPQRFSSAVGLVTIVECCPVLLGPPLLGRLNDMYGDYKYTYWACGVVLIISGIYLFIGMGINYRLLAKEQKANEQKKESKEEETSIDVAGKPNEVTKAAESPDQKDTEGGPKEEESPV
Protocol: as §1

Jurkat T-cell membranes = assay type: binding, human
Protocol: Cells were harvested by centrifugation at 1500 g for 10 minutes. The cell pellets were washed twice with phosphate buffered saline (PBS) and centrifuged as above. The final cell pellet was resuspended in lysis buffer (50 mM HEPES (pH 7.8), 50 mM KCl, 10% glycerol, 0.1 mM EDTA, 1 mM DTT) and lysed by nitrogen cavitation. Unlysed cells and nuclei were removed by centrifugation at 1500 g for 10 minutes. The supernatant was then centrifuged at 100,000 g for 30 minutes at 4° C., and the pellet resuspended and homogenised in assay buffer (50 mM HEPES (pH 7.5), 1 mM EDTA, 150 mM NaCl). Aliquots of membrane preparation were stored at −80° C. until use.
Frozen Jurkat cell membranes were thawed on ice and then homogenised. Wheatgerm agglutinin-linked Scintillation Proximity Assay beads (Amersham) were rehydrated in assay buffer to a concentration of 100 mg/ml. 2 ml of Jurkat membranes were added per 0.5 ml (50 mg) of SPA beads and incubated overnight with constant agitation to allow the beads to coat with Jurkat membranes. […] 10 μl of test compound and 10 μl of radioligand were incubated with 180 μl of SPA beads and membranes (0.04 mg beads). […] The plates were incubated for 3 hours at room temperature before quantitation of radioactivity proximal to the SPA beads by scintillation counting.

CC(C)Cc1nn(C)c(=O)c2c(SCCCO)n(Cc3ccccc3[125I])cc12 [Ligand A, 2,6-Dihydro-7-[(3-hydroxypropyl)thio]-6-[(2-[^125I]iodophenyl)methyl]-2-methyl-4-(2-methylpropyl)-1H-pyrrolo[3,4-d]pyridazin-1-one]
Specific binding (cpm) Average (human MCT3; MCT3 (2 ug)): 0 cpm | Specific binding (cpm) Average (human MCT3; MCT3 (20 ug)): 0 cpm | Specific binding (cpm) Average ([1]; vector (2 ug)): 1735 cpm | Specific binding (cpm) Average ([1]; vector (20 ug)): 0 cpm | Specific binding (cpm) Average (MCT1; MCT1 (2 ug)): 88841 cpm | Specific binding (cpm) Average (MCT1; MCT1 (20 ug)): 177453 cpm | 125I-ligand A binding (cpm), Specific binding (Total - Non-specific) (Jurkat T-cell membranes): 1991 cpm | 125I-ligand A binding (cpm), Total binding (Jurkat T-cell membranes; approximately 0.1 nM radioligand, vehicle alone): 2490 ± 32 cpm | 125I-ligand A binding (cpm), Non-specific binding (Jurkat T-cell membranes; in the presence of 1 μM Ligand 1): 499 ± 20 cpm
